From a melting point compilation (Tetko et al.; mined from patent text by program, amines drawn as free bases though some values may be those of a salt)

SMILES	melting point [°C]
COc1ccc(NC(=O)c2ccc(-c3ccc(-c4noc(C)n4)cc3C)cc2)cc1S(=O)CCN(C)C (stereo not drawn)	204 to 206
COc1cc(CCC(=O)O)ccc1OCc1sc(-c2ccc(C(F)(F)F)cc2)nc1C	150 to 152
C=CCc1cc2c(ccc(=O)n2CC=C(C)C)c(CC=C)c1O	187 to 189
C=CCN1C(=O)COc2ccc(C3CC(=O)C(C(CC)=NOCC)=C(O)C3)cc21 (stereo not drawn)	79 to 83
COc1cc(C(=O)O)ccc1Cn1ccc2ccc(NC(=O)CC3CCCC3)cc21	259 to 260
O=C(Nc1ccc2[nH]nc(C#Cc3ccccc3)c2c1)N[C@@H](c1ccc(Cl)c(Cl)c1)[C@@H]1CCCCN1	160
CC(=O)c1c(-c2ccncc2)[nH]c(-c2ccncc2)c1CO	205 to 207
O=C1NCN(c2ccccc2)C12CCN(CCCNc1ccc(F)cc1)CC2	158 to 162
Cn1cc(C(=O)O)c(=O)c2oc3ccc(Cl)cc3c(=O)c21	295 to 297
N[C@H]1CCN(c2cc3c(cc2F)c(=O)c(C(=O)O)cn3-c2nc[nH]n2)C1	250 to 260
C[C@@H](O[C@H]1CCCN(Cc2n[nH]c(=O)[nH]2)[C@H]1c1ccccc1)c1cccc(Br)c1	165
COc1ccc(C2=C(N)c3cc(OC)ccc3C2=O)cc1	213
CCOC(=O)CNC(=O)Nc1cnc(Nc2ccc(Cl)c(Cl)c2)nc1NC	304
NS(=O)(=O)c1cccc(S(=O)(=O)NC2CCC2)c1	140 to 143
O=c1oc2ccc(OC3CCCCO3)cc2s1 (stereo not drawn)	61 to 63
O=C1c2ccccc2C(O)N1CCCN1CCN(c2ccc(Cl)cc2)CC1 (stereo not drawn)	173
CN1C(=O)COc2cc3c(cc21)C1(CO3)C(=O)Nc2ccccc21 (stereo not drawn)	> 250
NCc1ccc(C2CCN(c3cc4c(cc3F)c(=O)c(C(=O)O)cn4C3CC3)C2)cc1 (stereo not drawn)	268 to 272
O=C(O)c1ccccc1-c1ccc(CNc2nc(Cl)nc3ccc(Cl)cc23)cc1	210 to 240
NC(=O)C1C(=O)NC(=O)C(C(N)=O)C12CCCCC2 (stereo not drawn)	> 300
C=C(C[C@@H](Cc1ccccc1)C(=O)N1CCOCC1)[C@H](C)[C@H](Cc1ccccc1)C(=O)N1CCOCC1 (relative stereo)	125 to 126
CCc1cc2c(cc1C(C)=O)CC(NC(=O)C(F)(F)F)C2 (stereo not drawn)	124 to 127
O=CN1CCc2cc(OCC3CO3)ccc2C1 (stereo not drawn)	78 to 79

SMILES	melting point [°C]
COc1ccc(C(=O)c2c(CO[N+](=O)[O-])[nH]c(=O)n2C(C)=O)cc1	165 to 166
COc1cc(COc2nn(Cc3ccccc3)cc2C(C)O)ccc1OCc1nc(-c2ccco2)oc1C (stereo not drawn)	105 to 106
CCOC(=O)c1c(C)nc2c(c1N)c1ccccc1n2Cc1ccc(OC)cc1	138 to 140
CSCC[C@@H]1C(=O)N(C)[C@H]([C@H](C)c2cccc3ccccc23)C(=O)N1C	88 to 90
COC(=O)c1ccc(C23CC4CC(CC(C4)C2)C3)c(O)c1	244 to 246
CC(=O)NNC1=Nc2sc(Cl)cc2C(c2ccccc2F)=NC1	207 to 209
O=C(NCc1ccc(Cl)cc1)c1cn(CCCc2ccccc2)c2sc(CN3CCOCC3)cc2c1=O	169 to 171
CCC=C1Cc2c3c(c(C)c(C)c2C1=O)OC(C(=O)O)C3 (stereo not drawn)	229
CCOC(=O)c1ccc(COc2cc(O)c(C(C)=O)cc2CC)cc1O	145 to 146
CC1(C)O[C@H]2[C@H](OCc3ccccc3)O[C@H](C(N)=O)[C@H]2O1	78
CCN(CC)Cc1cc(NC(=O)Nc2ccc(Oc3cc(N)ncn3)cc2)cc(C(F)(F)F)c1	63 to 65
O=C(c1cc(C(F)(F)F)cc(C(F)(F)F)c1)N1CCN(CCCC2(c3ccc(F)cc3)OCCO2)C[C@H]1Cc1c[nH]c2ccccc12	145 to 146
O=Cc1cc(Cl)c(Cl)c(Cl)n1	84 to 88
COC(=O)COc1ccc(CC2SC(=O)NC2=O)cc1 (stereo not drawn)	100 to 106
COC(=O)Cc1ccc2nc(C(F)(F)F)cc(Cl)c2c1	108 to 109
CCCn1c(=O)c2[nH]c(C3CCOCC3)nc2n(CCC)c1=O	171 to 172
COc1ccccc1Nc1nc(-c2ccccc2)c(C(=O)c2sc(Nc3ccccc3OC)nc2-c2ccccc2)s1	> 285
CCCc1c(OCCCS(=O)(=O)c2ccc(C(=O)CCC(=O)O)cc2F)ccc(C(C)=O)c1O	154 to 156
O=P(O)(CO)c1ccccc1	134 to 136
CCOC(=O)c1c(C)cc(C(=O)O)c(NC(C)=O)c1C	164
N[C@@H](Cc1ccccc1)[C@@H](O)C[C@H](Cc1ccccc1)NC(=O)OCc1cncs1	61 to 63
CC(CC(F)(F)C(F)(F)C(F)(F)C(F)(F)CC(C)C(=O)O)C(=O)O (stereo not drawn)	166 to 168

Now from value to molecule:

melting point [°C]	SMILES
74.5 to 76	CCCCCCOc1cc(C=O)c(OCCCCCC)cc1C=O
94 to 95	CCOC(=O)CC(=O)c1ccc([N+](=O)[O-])c(OC)c1
90 to 92	CCOC(=O)C1CNc2ccc(C)cc2O1 (stereo not drawn)
210	Cc1cc(-c2cc(C(F)(F)F)n3cnc(-c4cccnc4)c3n2)ccc1Cl
> 250	CCc1ccc(Nc2nc3cc(NC(=O)c4ccc(Cl)c(Cl)c4)ccc3o2)cc1
151 to 153	COC(=O)c1ccc(N2C(=O)CCC2(CO)CCO)c([N+](=O)[O-])c1 (stereo not drawn)
72	CCOC(=O)CC(=O)C=Cc1ccccc1[N+](=O)[O-]
> 300	O=C(O)c1ccc(C(=O)Nc2ccc(C(=O)N3CCCc4ccccc43)cc2)cc1
104 to 106	O=C1CCC(c2c[nH]c3cccc(F)c23)CC1
89 to 91	CNC(=S)NS(=O)(=O)c1cc(CCNC(=O)c2cnc3ccccc3c2)ccc1OCCOc1ccccc1
152 to 154	CC(=O)NCCCn1nnnc1S
< 50	CC(C)C1Cc2cc(C=O)sc2C1 (stereo not drawn)
114 to 120	O=[N+]([O-])c1oc2cc(NS(=O)(=O)C(F)(F)F)ccc2c1-c1ccccc1
105 to 108	CC(C)n1ncc2c(N(C)N)ncnc21
207 to 209	Nc1ccc(-c2nnc(-c3ccccn3)nn2)nc1
109 to 110	Cn1nc(-c2ccccc2)c(Sc2ccccc2)c1-c1ccccc1
227	O=C(c1ccc([N+](=O)[O-])cc1)c1ccc2[nH]c(=O)cc(-c3cccc(Cl)c3)c2c1
85 to 87	Clc1ccc(Sc2ccc(-c3ccccc3)s2)cc1
214 to 217	Nc1nc2c(Cl)ncnc2n1C1OC(CO)C(O)C1O (stereo not drawn)
148 to 162	CCCCC1(CCCC)CS(=O)(=O)c2ccc(N(C)C)cc2[C@@H](c2ccc(OCCCCCN(CC(=O)O)CC(=O)O)cc2)[C@H]1O
263	COc1ccccc1-c1nc(N)c(C(N)=O)nc1-c1ccc(=O)n(C(C)C)c1
> 260	CC1Cn2c(nc3ccccc32)NC1=O (stereo not drawn)
111 to 116	CCc1c([N+](=O)[O-])c(C(N)=O)nn1C[C@H]1CCCN1C
122 to 124	CC(c1oc2ccccc2c(=O)c1-c1cccc(F)c1)n1nc(-c2cc(O)cc(Cl)c2)c2c(N)ncnc21 (stereo not drawn)
197 to 200	CN1Cc2c(C#N)ncn2-c2sccc2C1=O
203 to 204	NC(=O)CNC(=O)c1cccc(-c2cccc3nc(Oc4cccc(C(F)(F)F)c4)sc23)c1
84 to 85	CCCCC(CC)COC(=O)C(C#N)=Cc1ccc(-c2nc3ccccc3o2)cc1 (stereo not drawn)

melting point [°C]	SMILES
246 to 247	CC(C)n1c(=O)c(=O)[nH]c2cccnc21
165 to 166	NC(=O)c1cc2ccccc2o1
116 to 118	Cc1nc2cccc(C)n2c(=O)c1CCN1CCN(c2cccc(Cl)c2)CC1
114 to 121	COC(=O)C(Oc1cc(O)ccc1C#N)c1ccccc1C (racemic)
102	CN(C)c1ccc(NC(=O)N(C)c2cccc(-c3ccc(CC4SC(=O)NC4=O)cc3)c2)cc1 (stereo not drawn)
171 to 174	CC(=O)NCC1CN(c2ccc(N3CCN(c4ccc([N+](=O)[O-])s4)CC3)c(F)c2)C(=O)O1 (stereo not drawn)
121	CC(=O)N1c2ccccc2C=Cc2ccccc21
124 to 126	COc1ccc(COc2ccc3c(c2)C(c2ccc(C(C)C)cc2)C(C)(C)O3)cc1 (stereo not drawn)
194 to 196	O=C(O)Cc1c(C(=O)c2ccccc2)[nH]c2ccccc12
96 to 97	COC(=O)c1cc(-c2ccc(F)cc2)oc1C
153	CCCCCc1ccc(CCc2ccc(-c3ccc(Cl)c(F)c3)cc2)cc1
138 to 139	Cn1nccc1CCS(=O)Cc1ccc(OCc2coc(/C=C/c3ccc(OC(F)(F)F)cc3)n2)cc1 (stereo not drawn)
135	COc1cccc(C(=O)Nc2ccc3ccc(OC)nc3n2)c1
173 to 176	CC(=O)Nc1ccc(S(=O)(=O)NCC2CCN(C[C@H]3COc4ccc(Cl)cc4O3)CC2)cc1
237 to 239	Nc1ncnc2c1ncn2[C@@H]1CO[C@H](CO)[C@@H](O)C1
154 to 156	CONCc1nc2c(N)nc(C)c(C)c2n1CC(C)C
115 to 116	COc1ccc(C(=O)c2ccc(Cl)cc2F)c(Cl)c1Cl
200 to 202	O=C(/C=C/c1ccc2ccccc2c1)N1CCN(Cc2cccc(CN3CCN(C(=O)/C=C/c4ccc5ccccc5c4)CC3)n2)CC1
138 to 141	NC(=O)CCCSc1cccc(NC(N)=NCC(F)(F)F)n1
145 to 146	CN(C)Cc1nncn1-c1ccc(Br)cc1C(=O)c1ccccn1
91.5 to 93.5	CN(Cc1ccc(S(C)=O)s1)C(=O)C12CC3CC(CC(C3)C1)C2 (stereo not drawn)
115 to 117	COC(=O)CCCC#Cc1cc(Cl)ccc1NS(=O)(=O)c1cc(OC)ccc1OC
115 to 116	CCOC(=O)C1=Cc2cc(Cl)cc(C#N)c2OC1C(F)(F)F (stereo not drawn)
210 to 212	O=C(Nc1ccc2cc(CN3CCCC3)cnc2c1)c1ccc(-c2ccc(F)cc2)cc1
181 to 183	O=C1NCNC12CCCc1ccccc12 (stereo not drawn)
118 to 120	COc1cc2c(cc1OC)C(C=Cc1ccccc1)=NN(C(C)=O)C(C)C2 (stereo not drawn)
